The values below come from patent EP1976842B1 (priority 2006, dated 2007).

In the test the target is T1, alpha7 nAChR (Rattus norvegicus, UniProt Q05941).
T1 construct: expressed in transfected cells
Description: cell-based.

Each structure is given as a SMILES string. Like-named read-outs stand apart in the source and are kept apart here.

T1 sequence (Q05941 23-502): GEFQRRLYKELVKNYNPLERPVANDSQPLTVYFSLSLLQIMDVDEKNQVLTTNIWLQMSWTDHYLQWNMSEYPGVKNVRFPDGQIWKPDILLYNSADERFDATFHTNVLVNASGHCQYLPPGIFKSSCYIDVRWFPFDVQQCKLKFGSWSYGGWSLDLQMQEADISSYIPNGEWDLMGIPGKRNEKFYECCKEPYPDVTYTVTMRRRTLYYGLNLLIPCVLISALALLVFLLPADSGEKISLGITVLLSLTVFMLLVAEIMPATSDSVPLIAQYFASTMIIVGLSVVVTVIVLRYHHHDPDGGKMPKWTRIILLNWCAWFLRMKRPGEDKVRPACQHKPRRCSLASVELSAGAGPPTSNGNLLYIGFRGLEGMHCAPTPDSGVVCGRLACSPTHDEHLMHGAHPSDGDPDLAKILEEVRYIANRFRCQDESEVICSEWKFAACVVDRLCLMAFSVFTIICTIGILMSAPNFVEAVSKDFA
Description: Rat GH4C1 cells were then transfected with the rat receptor, cloned and analyzed for functional alpha7 nicotinic receptor expression employing a FLIPR assay to measure changes in intracellular calcium concentrations.
The FLIPR system allows the measurements of real time Ca^2+-concentration changes in living cells using a Ca^2+ sensitive fluorescence dye (such as Fluo4). This instrument enables the screening for agonists and antagonists for alpha 7 nAChR channels stably expressed in GH4Cl cells.
GH4Cl cells stably transfected with rat- alpha7-nAChR (see above) were used. These cells are poorly adherent and therefore pretreatment of flasks and plates with poly-D-lysine was carried out. Cells are grown in 150 cm^2 T-flasks, filled with 30 ml of medium at 37°C and 5% CO2.
EC50 and IC50 values were calculated using the IDBS XLfit4.1 software package employing a sigmoidal concentration-response (variable slope) equation: Y = Bottom + ((Top-Bottom)/(1+(((EC50/X))^(∧)⁢HillSlope)). [formula]
The compounds were tested using the functional FLIPR primary screening assay employing the stable recombinant GH4C1 cell line expressing the alpha7 nAChR. Hits identified were validated further by generation of concentration-response curves.

With `O=c1cccc2n1C[C@@H]1CNC[C@H]2C1` [Cytisine, cytisine], a half-maximal effect (EC50) was put at 1210 ± 130 nM.

`C[N+]1(C)CCN(c2ccccc2)CC1` [DMPP]: the EC50 (commonly the concentration giving half of the maximal effect) (agonist concentration-response, 0.001 to 30 microM, alpha7 nAChR stably expressed in GH4C1 cells, read-out: EC50) amounted to 980 ± 470 nM.

`C[N+](C)(C)CCO` [Choline, choline]: the midpoint of the response, the EC50, lay at 24200 ± 8300 nM.
